Source: PMC9573605, “Exploring Nitric Oxide (NO)-Releasing Celecoxib Derivatives as Modulators of Radioresponse in Pheochromocytoma Cells” (Molecules, 2022)
Counter-ions that a name gives are not always drawn. Like-named read-outs stand apart in the source and are kept apart here.

Columns and labels:
purified ovine COX-1 [1] = biological target: T1, purified ovine COX-1 (Ovis aries, UniProt P05979); set-up: method as in PMID 26081289; conditions: previously reported ref 49; cited from earlier work
T1 construct: purchased Cayman Chemical 700100
T1 sequence (P05979 25-600): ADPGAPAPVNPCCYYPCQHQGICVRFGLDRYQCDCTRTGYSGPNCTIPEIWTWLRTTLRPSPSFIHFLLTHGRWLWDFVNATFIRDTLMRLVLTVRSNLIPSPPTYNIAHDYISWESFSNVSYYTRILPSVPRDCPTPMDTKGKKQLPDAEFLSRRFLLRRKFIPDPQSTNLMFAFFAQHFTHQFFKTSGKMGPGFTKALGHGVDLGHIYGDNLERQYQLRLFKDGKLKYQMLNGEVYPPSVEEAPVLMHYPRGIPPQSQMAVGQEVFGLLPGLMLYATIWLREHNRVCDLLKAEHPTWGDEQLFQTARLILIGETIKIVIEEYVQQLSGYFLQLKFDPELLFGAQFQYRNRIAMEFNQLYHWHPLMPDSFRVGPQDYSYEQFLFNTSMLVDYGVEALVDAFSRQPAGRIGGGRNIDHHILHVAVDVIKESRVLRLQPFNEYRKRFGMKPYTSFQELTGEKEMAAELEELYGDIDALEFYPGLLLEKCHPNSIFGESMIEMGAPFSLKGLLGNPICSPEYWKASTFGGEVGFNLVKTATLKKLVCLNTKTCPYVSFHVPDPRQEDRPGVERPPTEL

[2] = Lipophilicity logD7.4 by HPLC method; assay type: physicochemical; conditions: HPLC retention on ODP-50 4B column (Shodex Asahipak), phosphate buffer pH 7.4
Protocol: The lipophilicity of all synthesized compounds was determined as logD7.4, HPLC value by an HPLC method originally described by Donovan and Pescatore.
The logD7.4HPLC value was determined as previously reported by us utilizing an HPLC method originally described by Donovan and Pescatore.

recombinant human COX-2 [3] = biological target: T2, recombinant human COX-2 (Homo sapiens, UniProt P35354); set-up: method as in PMID 26081289; conditions: cited from earlier work; for SI: COX-1 vs COX-2 selectivity index, COX inhibition previously reported ref 49
T2 construct: purchased Cayman Chemical 700100
T2 sequence (P35354 18-604): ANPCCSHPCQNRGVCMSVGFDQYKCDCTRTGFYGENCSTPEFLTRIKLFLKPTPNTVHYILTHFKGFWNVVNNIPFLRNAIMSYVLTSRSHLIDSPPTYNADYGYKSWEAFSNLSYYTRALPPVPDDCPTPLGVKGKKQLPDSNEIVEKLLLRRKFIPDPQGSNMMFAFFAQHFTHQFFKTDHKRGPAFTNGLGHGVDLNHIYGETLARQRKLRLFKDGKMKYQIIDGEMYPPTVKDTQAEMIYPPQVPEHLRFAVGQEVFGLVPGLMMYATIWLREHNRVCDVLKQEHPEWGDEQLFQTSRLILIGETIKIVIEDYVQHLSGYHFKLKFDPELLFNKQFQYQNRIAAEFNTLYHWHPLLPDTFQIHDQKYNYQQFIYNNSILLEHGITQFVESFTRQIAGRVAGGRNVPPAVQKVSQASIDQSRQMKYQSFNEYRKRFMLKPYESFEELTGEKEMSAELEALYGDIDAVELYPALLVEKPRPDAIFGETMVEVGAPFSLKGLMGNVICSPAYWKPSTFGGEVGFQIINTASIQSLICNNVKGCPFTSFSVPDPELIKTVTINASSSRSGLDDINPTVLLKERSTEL

recombinant human COX-2 [4] = biological target: T2, recombinant human COX-2; assay: COX Fluorescent Inhibitor Screening Assay, COX-2; assay type: biochemical; conditions: for SI: COX-1 vs COX-2 selectivity index; for IC50: human COX-2, 0.1 nM to 100 µM in duplicate
Protocol: (§1) COX inhibition (Table 1) was evaluated in vitro using purified ovine COX-1 and recombinant human COX-2 enzyme in a commercially available “COX Fluorescent Inhibitor Screening Assay KIT” (item no. 700100, Cayman Chemical, Ann Arbor, MI, USA). Celecoxib served as a reference and inhibition data concerning 4a, 4e, 5a and 5e were previously reported by us and is herein discussed for comparison.
(§2) COX inhibition activity against ovine COX-1 and human COX-2 was determined using the fluorescence-based COX assay “COX Fluorescent Inhibitor Screening Assay Kit” (catalog number 700100; Cayman Chemical, Ann Arbor, MI, USA) according to the manufacturer’s instructions. Compounds 6a–d were screened at a concentration of 100 µM, all others were assayed in a concentration range of 0.1 nM to 100 μM in duplicate.

purified ovine COX-1 [5] = biological target: T1, purified ovine COX-1; assay: COX Fluorescent Inhibitor Screening Assay, COX-1; assay type: biochemical; conditions: 0.1 nM to 100 µM in duplicate
Protocol: as §1, §2

[6] = Conversion in NO-assay buffer followed by UPLC; assay type: physicochemical; conditions: after 70 h, 37 °C, presence of cysteine
Protocol: The time-dependent degradation behavior of compounds 4f, 5a–f, and 6a–d as well as celecoxib was followed by UPLC analysis over a time course of 8 days (Figure 4). For that, compounds were incubated at 37 °C in the presence or absence of cysteine in the assay buffer used for the Griess assay. Samples were withdrawn at distinct time points (1, 5, 23, 47, 70, and 191 h), diluted into a mixture of acetonitrile/water, and analyzed.
The time-dependent conversion of NO-COXIBs 5a–f and 6a–d as well as reference compounds 4f and celecoxib in the presence or absence of cysteine in assay buffer was investigated by following the degradation of intact compound and identification of selected degradation products by UPLC. For that, samples were incubated at 37 °C in the assay buffer in the presence or absence of cysteine and at the indicated time point; 5 µL assay buffer of each sample was withdrawn and diluted with 45 µL MeCN/water (50/50 v/v). The samples were thoroughly vortexed and then subjected to UPLC analysis. All samples of one time point were analyzed within a total analysis time of approximately 2.5 h. Conversion was monitored at 254 nm using the following UPLC system: column Aquity UPLC® HSS C18 column (Waters Corporation, Milford, MA, USA; 100 × 2.1 mm, 1.8 µm, 130 Å), UPLC H-Class (Waters Corporation, Milford, MA, USA): quaternary gradient pump QSM, autosampler FTN, column heater CHA, and diode array detector PDAeλ, γ detector Gabi Star (Raytest Isotopenmeßgeräte GmbH, Straubenhardt, Germany), flow rate 0.4 mL/min, eluent: (A): 0.1% acetic acid in MeCN/MeOH 1/1/(B): 0.1% acetic acid in H2O; gradient: t0min 45/55–t0.5min 45/55–t5.5min 95/5–t7.0min 95/5–t7.2min 45/55–t8.5min 45/55). For the identification of degradation products, samples taken after 24 h were additionally subjected to HPLC-HRMS analysis using HPLC system 6. In brief, the NO-COXIBs were converted to the respective hydroxymethyl-substituted compounds and in the presence of cysteine additionally to the cysteine adduct, which could be identified by the respective Δm/z shifts. A detailed comparison of calculated and found m/z-signals is given in Supplementary Material Table S1, and copies of HPLC-HRMS chromatograms and selected spectra are given in Supplementary Material Figures S56–S66.

[7] = Fluorometric NO release assay (Griess assay); assay type: physicochemical; conditions: 24 h, 37 °C, relative to initial molar amount of compound; for thiol-dependent NO release: 2.5 mM cysteine; for spontaneous NO release: absence of cysteine
Protocol: The nitric oxide releasing properties of the nitroester-derivatives 5a–d, 5f, and 6a–d were evaluated using a fluorometric Griess assay in the presence and absence of cysteine to determine thiol-dependent and spontaneous release of nitric oxide (Figure 3).
Nitric oxide release of compounds within 24 h at 37 °C was measured using the fluorometric nitric oxide microplate assay kit ab65327 (Abcam, Cambridge, UK). For measurement of spontaneous release, 1.8 nmol of compounds were incubated in 75 µL Dulbecco’s PBS containing 0.05% v/v residual DMSO and 2.5 mM DTPA (pH = 7.1) for 24 h at 37 °C. Thiol-dependent release was measured accordingly in presence of 2.5 mM cysteine. Two series of nitrate standards were prepared (0.2−1 nmol) in 75 µL incubation buffer, in presence or absence of cysteine, respectively. According to the manufacturer’s instructions, all nitrate content in samples and standards was enzymatically converted into nitrite through incubation with nitrate reductase for 2 h at room temperature, and the resulting nitrite content (total nitric oxide) was determined through reaction with 2,3-diaminonaphthalene followed by measurement of fluorescence intensity at λex/em = 360/450 nm using a microplate reader. Nitrite content in samples was calculated from linear regression of standards and expressed as relative nitric oxide release (%) normalized to the initial molar amount of compound. NONOate served as positive control.
Figure 3 Spontaneous and thiol-dependent NO^• release from NO-COXIBs; measured using fluorometric Griess assay (n = 2); relative release indicates the percentage of soluble nitrogen species (nitrate + nitrite) detected in the incubation buffer after 24 h compared to the initial molar amount of compounds; NO^• release of NONOate (positive control) exceeded the maximum detection limit; data presented as mean ± range.

## COc1ccc(-c2c(Cl)c(CO[N+](=O)[O-])nn2-c2ccc(S(N)(=O)=O)cc2)cc1 (as salt: nitrate) [5b, [4-Chloro-5-(4-methoxyphenyl)-1-(4-sulfamoylphenyl)-1H-pyrazol-3-yl]methyl nitrate]
other
  melting point: 173 to 174 °C

## Cc1ccc(-c2c(Cl)c(CO[N+](=O)[O-])nn2-c2ccc(S(C)(=O)=O)cc2)cc1 (as salt: nitrate) [5c, {4-Chloro-1-[4-(methylsulfonyl)phenyl]-5-(p-tolyl)-1H-pyrazol-3-yl}methyl nitrate]
other
  melting point: 113 to 115 °C

## COc1ccc(-c2c(Cl)c(CO[N+](=O)[O-])nn2-c2ccc(S(C)(=O)=O)cc2)cc1 (as salt: nitrate) [5d, {4-Chloro-5-(4-methoxyphenyl)-1-[4-(methylsulfonyl)phenyl]-1H-pyrazol-3-yl}methyl nitrate]
other
  melting point: 141 to 143 °C

## CCC(=O)NS(=O)(=O)c1ccc(-n2nc(CO[N+](=O)[O-])cc2-c2ccc(C)cc2)cc1 (as salt: nitrate) [6c, {1-[4-(N-Propionylsulfamoyl)phenyl]-5-(p-tolyl)-1H-pyrazol-3-yl}methyl nitrate]
other
  melting point: 72 to 74 °C

## Cc1ccc(-c2c(Cl)c(CCl)nn2-c2ccc(S(N)(=O)=O)cc2)cc1 [4a, 4-[4-Chloro-3-(chloromethyl)-5-(4-toly)-1H-pyrazol-1-yl]benzenesulfonamide]
Purified ovine COX-1 [1]
  IC50: > 100000 nM
[2]
  chromatographic logD: 3.61
Recombinant human COX-2 [3]
  SI: >454

## COc1ccc(-c2c(Cl)c(CCl)nn2-c2ccc(S(N)(=O)=O)cc2)cc1 [4b, 4-[4-Chloro-3-(chloromethyl)-5-(4-methoxyphenyl)-1H-pyrazol-1-yl]benzenesulfonamide]
Recombinant human COX-2 [4]
  SI: 2.3
  IC50: 127 nM
Purified ovine COX-1 [5]
  IC50: 297 nM
other
  melting point: 238 to 240 °C
[2]
  chromatographic logD: 3.53

## Cc1ccc(-c2c(Cl)c(CCl)nn2-c2ccc(S(C)(=O)=O)cc2)cc1 [4c, 4-Chloro-3-(chloromethyl)-1-[4-(methylsulfonyl)phenyl]-5-(p-tolyl)-1H-pyrazole]
Recombinant human COX-2 [4]
  SI: >138
  IC50: 720 nM
Purified ovine COX-1 [5]
  IC50: > 100000 nM
[2]
  chromatographic logD: 3.9

## COc1ccc(-c2c(Cl)c(CCl)nn2-c2ccc(S(C)(=O)=O)cc2)cc1 [4d, 4-Chloro-3-(chloromethyl)-5-(4-methoxyphenyl)-1-[4-(methylsulfonyl)phenyl]-1H-pyrazole]
Recombinant human COX-2 [4]
  SI: >208
  IC50: 480 nM
Purified ovine COX-1 [5]
  IC50: > 100000 nM
other
  melting point: 234 to 236 °C
[2]
  chromatographic logD: 3.84

## Cc1ccc(-c2cc(CCl)nn2-c2ccc(S(N)(=O)=O)cc2)cc1 [4e, 4-[3-(Chloromethyl)-5-(p-tolyl)-1H-pyrazol-1-yl]benzenesulfonamide]
Purified ovine COX-1 [1]
  IC50: > 100000 nM
[2]
  chromatographic logD: 3.14
Recombinant human COX-2 [3]
  SI: >78
Recombinant human COX-2 [3]; human COX-2, previously reported ref 49
  IC50: 1270 nM

## COc1ccc(-c2cc(CCl)nn2-c2ccc(S(N)(=O)=O)cc2)cc1 [4f, 4-[3-(Chloromethyl)-5-(4-methoxyphenyl)-1H-pyrazol-1-yl]benzenesulfonamide]
[6]
  intact compound: quantitatively consumed
Recombinant human COX-2 [4]
  SI: >270
  IC50: 370 nM
[7]
  thiol-dependent NO release: not detectable
  spontaneous NO release: not detectable
Purified ovine COX-1 [5]
  IC50: > 100000 nM
other
  melting point: 169 to 172 °C
[2]
  chromatographic logD: 3.06

## COc1ccc(-c2c(Cl)c(CO[N+](=O)[O-])nn2-c2ccc(S(N)(=O)=O)cc2)cc1 [5b, [4-Chloro-5-(4-methoxyphenyl)-1-(4-sulfamoylphenyl)-1H-pyrazol-3-yl]methyl nitrate]
Recombinant human COX-2 [4]
  SI: 5.9
  IC50: 434 nM
[7]
  thiol-dependent NO release: 20%
  spontaneous NO release: no detectable
Purified ovine COX-1 [5]
  IC50: 2570 nM
  IC50 (COX-1): considerable COX-1 inhibition potency
[2]
  chromatographic logD: 3.67

## Cc1ccc(-c2cc(CO[N+](=O)[O-])nn2-c2ccc(S(N)(=O)=O)cc2)cc1 [5e, [1-(4-Sulfamoylphenyl)-5-(p-tolyl)-1H-pyrazol-3-yl]methyl nitrate]
Purified ovine COX-1 [1]
  IC50: > 100000 nM
[2]
  chromatographic logD: 3.4
Recombinant human COX-2 [3]
  SI: >112
